15 molecules from patent US8394776B2, “Use of ursolic acid saponin,oleanolic acid saponin in preparation of increasing leucocytes and/or platelet medicine” (Chengdu Di'Ao Jiuhong Pharmaceutical Factor, priority 2007, dated 2013) can be followed below.

Experiment [1] relates to bone marrow mononuclear cell (BMMNC). Kind of experiment: Monocytic proliferation in bone marrow of mice cultured in vitro (SRB method). To be noted: 1 μg/ml; cultured 5 days; versus blank control. It is filed as cell-based, KunMing mice. The text has this:
15-20 KunMing mice (purchased from Laboratory Animal Center of Zhengzhou University, Henan) of either sex were killed by cervical vertebral dislocation. Bilateral thighbones were isolated and caput femoris was cut off. The marrow was washed repeatedly with serum-free RPMI1640 (Gibco Corp.), the wash solution containing marrow cells was collected, sucked and blew repeatedly with a pipette to make the cells disperse. After standing for a moment, the supernatant was sucked up and centrifugated at 100 g for 3 min to collect the cell pellet. The cells were resuspended in a culture media and brought to a volume of 5 ml. The cell suspension was added to the upper layer of a centrifugal tube containing 5 ml of a lymphocyte separation medium of mice and centrifugated at 400 g for 30 min. The milk-white bone marrow mononuclear cell (BMMNC) layer in the middle of the interface was collected and washed with serum-free medium RPMI1640 for three times to obtain a BMMNC suspension, which was inoculated into a 96-well plate at forty thousand per well after counting. Positive drugs rhG-CSF (recombinant granulocyte colony-stimulating factor, manufactured by QI LU Pharmaceutical Co., LTD., Shandong) or test samples of different concentrations were added, and meanwhile a blank control group without drug was established. They were cultured in a 5% CO2 incubator at 37 for 5 days. Cell proliferation was measured by a conventional SRB (Sigma) method in which OD at 490 nm was measured after being dyed with SRB. The growth rates of cell proliferation after drug treatment were calculated (Growth rate of cell proliferation=experimental group-blank control group/blank control group*100%).
(In general: The SRB assay estimates cell density from bound dye.)

Another experiment has as its system leukocytes (WBC). Kind of experiment: Cyclophosphamide-induced leukopenia in mice: leukocytes (WBC). It is filed as in vivo, Kunming mice. Conditions: Experimental Example 3; 0.8 mg/kg. The method, then: (§1) Further, in vivo experiments were carried out on the compounds involved in the present invention using animal models of cyclophosphamide-induced leukopenia in mice. Experimental methods are briefed as follows: Healthy Kunming mice, of which half were male and the other half were female, were divided into groups, each group incuding 18 mice, and those mice weighing 18-22 g were selected and divided into groups randomly according to their body weights. Each group was given a different drug, wherein the negative control group and model control group were given physiological saline of the same volume, and the positive control group was treated with granulocyte colony-stimulating factors 40 μg/kg through subcutaneous injection (injection volume: 0.1 ml/10 g). After administration for 3 days, except the negative control group, other treatment groups were treated with 100 mg/kg cyclophosphamide (CY) through lumbar injection once a day for three days to cause a decrease of leukocytes in mice. A drop of blood (20 μl) was taken from posterior orbital venous plexus to detect the hemogram to observe the situation of leukocytes and platelets on day 1, day 3 and/or day 5 after the final lumbar injection of cyclophosphamide (i.e day 1, day 3 and/or day 5 after modeling) (Note: Each treatment group was administrated incessantly). The mice were killed on day 5 after the final lumbar injection of cyclophosphamide (i.e day 5 after modeling), and the leukocytes (WBC) and platelets (PLT) of the hemogram index were counted.
This experiment mainly studies the effect of G-1, G-6 and G-8 of ursolic acid saponin in increasing leukocytes, and compares the therapeutic effects of aglycon of ursolic acid and oleanolic acid and of the compound G-22 which has been disclosed by a patent.
(§2) The purpose of this experiment is to study the effect of G-1, G-3, G-11 and G-12 of ursolic acid saponin and oleanolic acid saponin in increasing platelets, and to observe whether G-11 and G-12 of oleanolic acid saponin have an effect in increasing leukocytes.

The test system of another experiment is platelets (PLT). Kind of experiment: Cyclophosphamide-induced leukopenia in mice: platelets (PLT). It is filed as in vivo, Kunming mice. To be noted: Experimental Example 3, 0.8 mg/kg; for difference in increasing platelets compared with G-22 (in words): day 5 after modeling. As to the method: as §1, §2

Turning to “3-O-(β-D-glucopyranosyl) oleanolic acid [Sample G-13]”, the “Growth Rate of Proliferation %, 1 μg/ml” value in experiment [1] is listed as 21.6%. On to `CC1CCC2(C(=O)OC3OC(C)C(O)C(O)C3O)CCC3(C)C(=CCC4C5(C)CCC(OC6OC(C)C(O)C(O)C6O)C(C)(C)C5CCC43C)C2C1C` [Sample G-2, 3-O-(α-L-rhamnopyranosyl) ursolic acid-28-O-(α-L-rhamnopyranosyl) ester], for which the “Growth Rate of Proliferation %, 1 μg/ml” value in experiment [1] is on record as 19.9%. Take `CC1CCC2(C(=O)OC3OC(CO)C(OC4OC(CO)C(O)C(O)C4O)C(O)C3O)CCC3(C)C(=CCC4C5(C)CCC(OC6OCC(O)C(O)C6O)C(C)(C)C5CCC43C)C2C1C` [Sample G-4, 3-O-(α-L-arabopyranosyl) ursolic acid-28-O-(β-cellobiosyl) ester]: the “Growth Rate of Proliferation %, 1 μg/ml” value in experiment [1] stood at 18.0%. `CC1CCC2(C(=O)O)CCC3(C)C(=CCC4C5(C)CCC(OC6OC(CO)C(O)C(O)C6O)C(C)(C)C5CCC43C)C2C1C` [Sample G-7, 3-O-(β-D-glucopyranosyl) ursolic acid]: the “Growth Rate of Proliferation %, 1 μg/ml” value in experiment [1] turned out to be 23.7%.

`C[C@H]1[C@H](C)CC[C@]2(C(=O)O)CC[C@]3(C)C(=CC[C@@H]4[C@@]5(C)CC[C@H](O[C@@H]6O[C@@H](C)[C@H](O)[C@@H](O)[C@H]6O)C(C)(C)[C@@H]5CC[C@]43C)[C@H]12` [Sample G-9, 3-O-(α-L-rhamnopyranosyl) ursolic acid]: the “Growth Rate of Proliferation %, 1 μg/ml” value in experiment [1] is 23.4%. Consider `CC1CCC2(C(=O)O)CCC3(C)C(=CCC4C5(C)CCC(OC6OC(CO)C(O)C(O)C6O)C(C)(C)C5CCC43C)C2C1C` [Sample G-10, 3-O-(β-D-galactopyranosyl) ursolic acid], for which the “Growth Rate of Proliferation %, 1 μg/ml” value in experiment [1] came to 24.2%.

For the molecule `CC1(C)CC[C@]2(C(=O)O[C@@H]3OC[C@H](O)[C@H](O)[C@H]3O)CC[C@]3(C)C(=CC[C@@H]4[C@@]5(C)CC[C@H](O[C@@H]6OC[C@H](O)[C@H](O)[C@H]6O)C(C)(C)[C@@H]5CC[C@]43C)[C@@H]2C1` [Sample G-11, 3-O-(α-L-arabopyranosyl) oleanolic acid-28-O-(α-L-arabopyranosyl) ester], in the experiment on leukocytes (WBC), the “effect in increasing leukocytes (in words)” value is listed as “obvious effect in increasing leukocytes at day 1 after modeling”; the “leukocytes, Day 1 after modeling” value amounted to 0.94 ± 0.77; the “leukocytes, Day 5 after modeling” value stood at 7.55 ± 4.28. In experiment [1], the “Growth Rate of Proliferation %, 1 μg/ml” value is recorded as 26.8%. Besides, in the experiment with platelets (PLT), the “effect in increasing platelets (in words)” value was “effect in increasing platelets is obvious on day 1 and day 5”; the “platelets, Day 1 after modelng” value is 465.00 ± 99.28; the “platelets, Day 5 after modeling” value was 385.73 ± 198.30**★; the “difference in increasing platelets compared with G-22 (in words)” value was “significant difference on day 5 compared with G-22”. Regarding `CC1(C)CC[C@]2(C(=O)O[C@@H]3O[C@H](CO)[C@@H](O)[C@H](O)[C@H]3O)CC[C@]3(C)C(=CC[C@@H]4[C@@]5(C)CC[C@H](O[C@@H]6O[C@H](CO)[C@@H](O)[C@H](O)[C@H]6O)C(C)(C)[C@@H]5CC[C@]43C)[C@@H]2C1` [Sample G-12, 3-O-(β-D-glucopyranosyl) oleanolic acid-28-O-(β-D-glucopyranosyl) ester], in the experiment on leukocytes (WBC), the “effect in increasing leukocytes (in words)” value was “obvious effect in increasing leukocytes at day 1 after modeling”; the “leukocytes, Day 1 after modeling” value is reported as 1.01 ± 0.55; the “leukocytes, Day 5 after modeling” value stood at 5.48 ± 4.39. Besides, the “Growth Rate of Proliferation %, 1 μg/ml” value in experiment [1] turned out to be 25.4%. In the experiment on platelets (PLT), the “effect in increasing platelets (in words)” value was “effect in increasing platelets is obvious on day 1 and day 5”; the “platelets, Day 1 after modelng” value came out at 456.88 ± 77.20; the “platelets, Day 5 after modeling” value is listed as 390.86 ± 203.71**★★; the “difference in increasing platelets compared with G-22 (in words)” value is “significant difference on day 5 compared with G-22”. As for `CC1(C)CCC2(C(=O)O)CCC3(C)C(=CCC4C5(C)CCC(OC6OC(CO)C(O)C(O)C6O)C(C)(C)C5CCC43C)C2C1` [Sample G-14, 3-O-(β-D-galactopyranosyl) oleanolic acid], in experiment [1], the “Growth Rate of Proliferation %, 1 μg/ml” value is recorded as 19.9%. Same read-out and setting: next, `CC1(C)CC[C@]2(C(=O)O)CC[C@]3(C)C(=CC[C@@H]4[C@@]5(C)CC[C@H](O[C@@H]6OC[C@@H](O)[C@H](O)[C@H]6O)C(C)(C)[C@@H]5CC[C@]43C)[C@@H]2C1` [Sample G-15, 3-O-(β-D-xylopyranosyl) oleanolic acid]: 20.6%; `CC1(C)CC[C@]2(C(=O)O)CC[C@]3(C)C(=CC[C@@H]4[C@@]5(C)CC[C@H](O[C@@H]6OC[C@@H](O)[C@@H](O)[C@@H]6O)C(C)(C)[C@@H]5CC[C@]43C)[C@@H]2C1` [Sample G-16, 3-O-(α-L-arabopyranosyl) oleanolic acid]: 21.6%. For the molecule `CC1(C)CC[C@]2(C(=O)O[C@@H]3O[C@H](CO)[C@@H](O)[C@H](O)[C@H]3O)CC[C@]3(C)C(=CC[C@@H]4[C@@]5(C)CC[C@H](O)C(C)(C)[C@@H]5CC[C@]43C)[C@@H]2C1` [Sample G-17, oleanolic acid-28-O-(β-D-glucopyranosyl) ester], the “Growth Rate of Proliferation %, 1 μg/ml” value in experiment [1] is given as 20.6%. The same measure, in the same setting: next, `CC1(C)CCC2(C(=O)OC3OC(COC4OC(CO)C(O)C(O)C4O)C(O)C(O)C3O)CCC3(C)C(=CCC4C5(C)CCC(O)C(C)(C)C5CCC43C)C2C1` (stereo not drawn) [Sample G-18, oleanolic acid-28-O-(β-gentiobiosyl) ester]: 19.0%; `CC1(C)CC[C@]2(C(=O)O)CC[C@]3(C)C(=CC[C@@H]4[C@@]5(C)CC[C@H](O[C@@H]6O[C@H](C(=O)O)[C@@H](O)[C@H](O)[C@H]6O)C(C)(C)[C@@H]5CC[C@]43C)[C@@H]2C1` [Sample G-19, 3-O-(β-D-glucuronopyranosyl) oleanolic acid]: 20.9%; “ursolic acid-28-O-(α-L-arabopyranosyl) ester [Sample G-5]”: 20.1%.
